Test: Welfare of cows induced to dry off (Example 6): udder pressure index, steps/lying ratio
Assay type: in vivo, Holstein cows
Experimental: 20 Holstein cows toward the end of lactation (˜60 days) and producing 17-35 liters milk per day were entered to the study. Cows were paired according to lactation number, days in milk, days to parturition, teat-end integrity, milk yield, SCC per ml of milk per cow or quarter and number of quarters infected at day of drying-off (Table 13).
Quarter's milk SCC and bacterial isolation were tested a week apart for 3 times, before drying-off. One cow of each pair was then assigned to a subgroup randomly (by flipping a coin). Cows in subgroup 1 were treated after milking with casein hydrolyzate and with the broad range antibiotic Cefquinome, (75 mg per dose) (N+C), while the cows in subgroup 2 were treated with Cefquinome alone (75 mg per dose) (C). […]
Udder pressure index (UPI) was set as follows: 0, 1, 2 and 3, where 0 is no pressure, 1 is medium pressure, 2 is high pressure and 3 is extremely high pressure. Arbitrary UPI values were determined by assessing the udder pressure by pressing a finger into the tissue and assessing its resistant to pressure in two areas, the milk cistern and corpus ubeis, 10 cm above the teats. […]
Data were statistically analyzed using the fit model procedure for repeated measurements of JMP (Version 5, SAS Institute, Cary, N.C.); treatment was the between-subject factor and time was the within-subject factor. […]

CO/N=C(\C(=O)N[C@@H]1C(=O)N2C(C(=O)[O-])=C(C[n+]3cccc4c3CCCC4)CS[C@H]12)c1csc(N)n1 [C, Cefquinome]
Udder pressure index (UPI), single cow (day 4 after treatment, cow with milk yield over 30 liters per day at dry-off (FIG. 4)): ~2
ratio between number of steps and duration of lying (RSL) (from the second day after treatment, 10 cows per group (FIG. 5)): unchanged
